In patent publication US8575160B2, “Imidazole derivatives as aldosterone synthase inhibitors” (Novartis AG, priority 2009, dated 2013):

What was measured:
CYP11B1 = target: T1, CYP11B1 (Homo sapiens, UniProt P15538); assay: cellular cortisol production in NCI-H295R cells (CYP11B1 inhibition); format: cell-based
T1 construct: the NCI-H295R cells have CYP11 B1 (steroid 11 β-hydroxylase); host or cells: NCI-H295R
T1 sequence (P15538 25-503): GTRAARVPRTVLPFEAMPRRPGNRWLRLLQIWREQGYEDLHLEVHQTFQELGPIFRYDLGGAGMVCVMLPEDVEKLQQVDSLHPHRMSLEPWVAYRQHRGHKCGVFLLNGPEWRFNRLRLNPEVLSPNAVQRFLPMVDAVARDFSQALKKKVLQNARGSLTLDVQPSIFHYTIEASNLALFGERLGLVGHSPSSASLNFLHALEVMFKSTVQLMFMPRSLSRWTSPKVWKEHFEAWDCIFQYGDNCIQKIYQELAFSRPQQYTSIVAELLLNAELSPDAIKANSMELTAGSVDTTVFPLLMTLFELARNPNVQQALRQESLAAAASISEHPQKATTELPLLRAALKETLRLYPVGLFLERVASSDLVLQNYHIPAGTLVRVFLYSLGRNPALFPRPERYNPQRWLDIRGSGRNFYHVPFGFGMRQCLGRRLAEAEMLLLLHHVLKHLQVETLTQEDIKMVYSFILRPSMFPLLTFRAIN
Excerpt: The in vitro inhibitory activities for CYP11B1 can be determined by the following assay.
The cell line NCI-H295R was originally isolated from an adrenocortical carcinoma and has been characterized in the literature through the stimulable secretion of steroid hormones and the presence of the enymes essential for steroidogenesis. Thus, the NCI-H295R cells have CYP11 B1 (steroid 11 β-hydroxylase). The cells show the physiological property of zonally undifferentiated human foetal adrenocortical cells which, however, have the capacity to produce the steroid hormones which are formed in the three, phenotypically distinguishable zones in the adult adrenal cortex.
The NCI-H295R cells (American Type Culture Collection, ATCC, Rockville, Md., USA) are grown in Dulbeoco's Modified Eagle'Ham F-12 Medium (DME/F12), which has been supplemented with Ulroser SF Serum (Soprachem, Cergy-Saint-Christophe, France), insulin, transferrin, selenite (I-T-S, Becton Dickinson Biosiences, Franklin lakes, NJ, USA) and antibiotics in 75 cm^2 cell culture vessels at 37° C. and in a 95% air-5% carbon dioxide atmosphere. The cells are subsequently transferred for colony formation into a 24-well incubation vessel. They are cultivated there in DME/F12 medium, which is now supplemented with 0.1% bovine serum instead of Ultroser SF for 24 hours. The experiment is initiated by cultivating the cells in DME/F12 medium which is supplemented with 0.1% bovine serum albumin and test compound, in the presence or absence of cell stimulants, for 72 hours. The test substance is added in a concentration range from 0.2 nanomolar to […]. Cell stimulants which can be used are angiotensin 11 (1 D or 100 nanomolar), potassium ions (16 millimolar), forskolin (10 micromolar) or a combination of two stimulants.
The excretion of aldosterone, cortisol, corticosterone and estradiol/estrone into the culture medium can be detected and quantified by commercially available, specific monoclonal antibodies in radioimmunoassays in accordance with the manufacturer's instructions.
(§1) Inhibition of the release of certain steroids can be used as a measure of the respective enzyme inhibition by the added test compounds. The dose-dependent inhibition of enzymic activity by a compound is calculated by means of an inhibition plot which is characterized by an IC50.
(§2) The IC50 values for active test compounds are ascertained by a simple linear regression analysis in order to construct inhibition plots without data weighting. The inhibition plot is calculated by fitting a 4-parameter logistic function to the raw data points using the least squares method. The equation of the 4-parameter logistic function is calculated as follows: Y=(d−a)/((1+(x/c)b))+a, where: a=minimum data level, b=gradient, I […], d=maximum data level, x=inhibitor concentration.

[1] = target: T2, aldosterone synthase (CYP11B2) (Homo sapiens, UniProt P19099); assay: cellular aldosterone production in NCI-H295R cells (aldosterone synthase inhibition); format: cell-based
T2 construct: host or cells: NCI-H295R
T2 sequence (P19099 25-503): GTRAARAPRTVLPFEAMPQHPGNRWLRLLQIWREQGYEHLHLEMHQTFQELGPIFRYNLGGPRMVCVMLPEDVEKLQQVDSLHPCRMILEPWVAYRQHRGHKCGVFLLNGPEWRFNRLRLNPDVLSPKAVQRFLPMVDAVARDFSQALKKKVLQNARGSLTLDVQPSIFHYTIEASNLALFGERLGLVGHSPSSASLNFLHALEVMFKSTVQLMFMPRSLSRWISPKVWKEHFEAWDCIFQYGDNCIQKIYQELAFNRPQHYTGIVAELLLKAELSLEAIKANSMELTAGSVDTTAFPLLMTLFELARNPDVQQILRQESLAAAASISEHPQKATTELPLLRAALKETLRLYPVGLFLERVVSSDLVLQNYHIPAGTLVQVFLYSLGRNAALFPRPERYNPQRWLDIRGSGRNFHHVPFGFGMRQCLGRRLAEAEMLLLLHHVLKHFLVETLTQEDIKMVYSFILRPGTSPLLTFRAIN
Excerpt: In particular, the aldosterone synthase inhibitory activities in vitro can be determined by the following assay.
Human adrenocortical carcinoma NCI-H295R cell line was obtained from American Type Culture Collection (Manassas, Va.). Insulin/transferrin/selenium (ITS)-A supplement (100×), DMEM/F-12, antibiotic/antimycotic (100×), and fetal bovine serum (FBS) were purchased from Invitrogen (Carlsbad, Calif.). Anti-mouse PVT scintillation proximity assay (SPA) beads and NBS 96-well plates were obtained from GE Health Sciences (Piscataway, N.J.) and Corning (Acton, Mass.), respectively. Solid black 96-well flat bottom plates were purchased from Costar (Corning, N.Y.). Aldosterone and angiotensin (Ang II) were purchased from Sigma (St. Louis, Mo.). D[1,2,6,7-^3H(N)]aldosterone was acquired from PerkinElmer (Boston, Mass.). Nu-serum was a product of BD Biosciences (Franklin Lakes, N.J.).
For in vitro measurement of aldosterone activity, human adrenocortical carcinoma NCI-H295R cells are seeded in NBS 96-well plates at a density of 25,000 cells/well in 100 μl of a growth medium containing DMEM/F12 supplemented with 10% FCS, 2.5% Nu-serum, 1 μg ITS/ml, and 1× antibiotic/antimycotic. The medium is changed after culturing for 3 days at 37° C. under an atmosphere of 5% CO2/95% air. On the following day, cells are rinsed with 100 μl of phosphate-buffered saline (PBS) and incubated with 100 μl of treatment medium containing 1 μM Ang II and a compound at different concentrations in quadruplicate wells at 37° C. for 24 hr. At the end of incubation, 50 μl of medium is withdrawn from each well for measurement of aldosterone production by an SPA using mouse anti-aldosterone monoclonal antibodies.
Measurement of aldosterone activity can also be performed using a 96-well plate format. Each test sample is incubated with 0.02 μCi of D[1,2,6,7-^3H(N)]aldosterone and 0.3 μg of anti-aldosterone antibody in PBS containing 0.1% Triton X-100, 0.1% bovine serum albumin, and 12% glycerol in a total volume of 200 μl at room temperature for 1 hr. Anti-mouse PVT SPA beads (50 μl) are then added to each well and incubated overnight at room temperature prior to counting in a Microbeta plate counter. The amount of aldosterone in each sample is calculated by comparing with a standard curve generated using known quantities of the hormone.
as §1, §2

Structure (SMILES)	IC50 (CYP11B1) [nM]	IC50 [1] [nM]
Cn1c([C@@]2(O)C[C@H](c3ccc(C#N)cc3F)n3cncc32)cc2ccccc21 [Example 1-50]	1800	7
N#Cc1ccc([C@H]2C[C@](O)(C#CC3CC3)c3cncn32)c(F)c1 [Example 1-52, 4-((5R,7S)-7-(cyclopropylethynyl)-7-hydroxy-6,7-dihydro-6H-pyrrolo[1,2-c]imidazol-5-yl)-3-fluorobenzonitrile]	273	142
N#Cc1ccc([C@H]2C[C@](O)(c3cccc(-c4ccc(F)cc4)c3)c3cncn32)c(F)c1 [Example 1-30]	522	25
N#Cc1ccc([C@H]2C[C@](O)(CC(=O)Nc3cccc(OC(F)(F)F)c3)c3cncn32)c(F)c1 [Example 4-15]	8780	72
C=C[C@@]1(O)C[C@H](c2ccc(C#N)cc2F)n2cncc21 [Example 1-1, 3-fluoro-4-((5R,7S)-7-hydroxy-7-vinyl-6,7-dihydro-5H-pyrrolo[1,2-c]imidazol-5-yl)benzonitrile]	472	11
COc1cc(-c2cccc([C@@]3(O)C[C@H](c4ccc(C#N)cc4F)n4cncc43)c2)ccn1 [Example 2-10]	338	6
CCc1ccc([C@@]2(O)C[C@H](c3ccc(C#N)cc3F)n3cncc32)cc1 [Example 1-32]	645	6
Cc1cc(-c2ccc([C@@]3(O)C[C@H](c4ccc(C#N)cc4F)n4cncc43)cc2)ccn1 [Example 3-14]	10200	64
Cc1ccc([C@@]2(O)C[C@H](c3ccc(C#N)cc3F)n3cncc32)cc1C [Example 1-4, 4-((5R,7S)-7-(3,4-dimethylphenyl)-7-hydroxy-6,7-dihydro-5H-pyrrolo[1,2-c]imidazol-5-yl)-3-fluorobenzonitrile]	480	5

Molecules with a lower IC50 (CYP11B1), results first:

IC50 (CYP11B1) [nM]	IC50 [1] [nM]	Structure (SMILES)
14	1	N#Cc1ccc([C@H]2C[C@@](O)(c3ccc4ccccc4c3)c3cncn32)c(F)c1 [Example 1-17]
103	34	N#Cc1ccc([C@H]2C[C@](O)(c3ccc4c(c3)OCO4)c3cncn32)c(F)c1 [Example 1-13]
220	42	CC1(C)[C@H](c2ccc(C#N)cc2F)n2cncc2[C@@]1(O)c1ccc(F)cc1 [Example 1-53, 3-fluoro-4-((5R,7R)-7-(4-fluorophenyl)-7-hydroxy-6,6-dimethyl-6,7-dihydro-5H-pyrrolo[1,2-c]imidazol-5-yl)benzonitrile]
6	2	N#Cc1ccc([C@H]2C[C@](O)(CCc3ccccc3)c3cncn32)c(F)c1 [Example 1-12]
84	27	N#Cc1ccc([C@H]2C[C@](O)(c3cccc(C4CC4)c3)c3cncn32)c(F)c1 [Example 1-2, 4-((5R,7S)-7-(3-cyclopropylphenyl)-7-hydroxy-6,7-dihydro-5H-pyrrolo[1,2-c]imidazol-5-yl)-3-fluorobenzonitrile]
135	72	N#Cc1ccc([C@H]2CC[C@](O)(c3ccc(-c4ccccc4)cc3)c3cncn32)cc1 [Example 1-41]
143	2	N#Cc1ccc([C@H]2C[C@](O)(c3ccc4ccccc4c3)c3cncn32)c(F)c1 [Example 1-16]
